Assay results published in patent US20260041683A1, “Compounds with Anti-Acinetobacter Baumannii Activity” (University of Kentucky Research Foundation, priority 2022, published 2026).
In brackets after ≈: the same amount, converted by molar mass.

Experiments:
[1] = system: Ab strain #276 (CDC and FDA AR Bank); experiment: MIC determination; type: cell-based; settings: Acinetobacter baumannii; Ab AR Bank #276
Method: (§1) All bacterial strains listed above were stored at −80° C. All strains were streaked on Mueller-Hinton (MH) plates and allowed to grow at 37° C. overnight. Enough colonies were scraped from the plate and suspended in MH broth with vortexing to reach an attenuance at 600 nm (OD600) of ˜0.5. The resulting culture was diluted 1:1000 and added to the prepared serially doubly diluted compound solutions in 96-well plates. For M. smegmatis, a 1:100 dilution of the bacteria was done in MH. All MIC values were determined using 96-well plates with low evaporation seals at least in duplicate. For each row, one well was reserved for sterile control (which consisted of 200 μL of MH medium) and another well was reserved for growth control (which consisted of 100 μL of MH medium seeded with 100 μL of bacterial culture).
(§2) Then all 46 compounds were tested against a broad panel of all 41 Ab strains from the CDC and FDA Antibiotic Resistance (AR) Isolate Bank (Table 2; data shown for 2 representative compounds), which were all highly multidrug-resistant strains, including those resistant to colistin. […] The activity of the monohydrazides was not dependent on the extent (number of resistance mutations) or severity (antibiotic MIC) of resistance. All conclusions made from Table 1 remained valid for all compounds against these 41 additional Ab strains. […] This mechanism of action will be elucidated in the proposed studies.

[2] = system: Ab strain #279 (CDC and FDA AR Bank); experiment: MIC determination; type: cell-based; settings: Acinetobacter baumannii; Ab AR Bank #279
Method: as §1, §2

[3] = system: Ab strain #282 (CDC and FDA AR Bank); experiment: MIC determination; type: cell-based; settings: Acinetobacter baumannii; Ab AR Bank #282
Method: as §1, §2

[4] = system: Ab strain #284 (CDC and FDA AR Bank); experiment: MIC determination; type: cell-based; settings: Acinetobacter baumannii; Ab AR Bank #284
Method: as §1, §2

[5] = system: Ab strain #288 (CDC and FDA AR Bank); experiment: MIC determination; type: cell-based; settings: Acinetobacter baumannii; Ab AR Bank #288
Method: as §1, §2

[6] = system: Ab strain #289 (CDC and FDA AR Bank); experiment: MIC determination; type: cell-based; settings: Acinetobacter baumannii; Ab AR Bank #289
Method: as §1, §2

[7] = system: Ab strain #291 (CDC and FDA AR Bank); experiment: MIC determination; type: cell-based; settings: Acinetobacter baumannii; Ab AR Bank #291
Method: as §1, §2

[8] = system: Ab strain #292 (CDC and FDA AR Bank); experiment: MIC determination; type: cell-based; settings: Acinetobacter baumannii; Ab AR Bank #292
Method: as §1, §2

[9] = system: Ab strain #293 (CDC and FDA AR Bank); experiment: MIC determination; type: cell-based; settings: Acinetobacter baumannii; Ab AR Bank #293
Method: as §1, §2

[10] = system: Ab strain #294 (CDC and FDA AR Bank); experiment: MIC determination; type: cell-based; settings: Acinetobacter baumannii; Ab AR Bank #294
Method: as §1, §2

[11] = system: Ab strain #300 (CDC and FDA AR Bank); experiment: MIC determination; type: cell-based; settings: Acinetobacter baumannii; Ab AR Bank #300
Method: as §1, §2

[12] = system: Ab strain #302 (CDC and FDA AR Bank); experiment: MIC determination; type: cell-based; settings: Acinetobacter baumannii; Ab AR Bank #302
Method: as §1, §2

[13] = system: Ab strain #303 (CDC and FDA AR Bank); experiment: MIC determination; type: cell-based; settings: Acinetobacter baumannii; Ab AR Bank #303
Method: as §1, §2

[14] = system: Ab strain #304 (CDC and FDA AR Bank); experiment: MIC determination; type: cell-based; settings: Acinetobacter baumannii; Ab AR Bank #304
Method: as §1, §2

[15] = system: Ab strain #306 (CDC and FDA AR Bank); experiment: MIC determination; type: cell-based; settings: Acinetobacter baumannii; Ab AR Bank #306
Method: as §1, §2

[16] = system: Ab strain #307 (CDC and FDA AR Bank); experiment: MIC determination; type: cell-based; settings: Acinetobacter baumannii; Ab AR Bank #307
Method: as §1, §2

[17] = system: Ab strain #308 (CDC and FDA AR Bank); experiment: MIC determination; type: cell-based; settings: Acinetobacter baumannii; Ab AR Bank #308
Method: as §1, §2

[18] = system: Ab strain #309 (CDC and FDA AR Bank); experiment: MIC determination; type: cell-based; settings: Acinetobacter baumannii; Ab AR Bank #309
Method: as §1, §2

[19] = system: Ab strain #310 (CDC and FDA AR Bank); experiment: MIC determination; type: cell-based; settings: Acinetobacter baumannii; Ab AR Bank #310
Method: as §1, §2

[20] = system: Ab strain #311 (CDC and FDA AR Bank); experiment: MIC determination; type: cell-based; settings: Acinetobacter baumannii; Ab AR Bank #311
Method: as §1, §2

[21] = system: Ab strain #312 (CDC and FDA AR Bank); experiment: MIC determination; type: cell-based; settings: Acinetobacter baumannii; Ab AR Bank #312
Method: as §1, §2

[22] = system: all 43 strains of A. baumannii (41 CDC strains and 2 ATCC strains); experiment: MIC value statistics for all A. baumannii strains; type: cell-based, Acinetobacter baumannii; settings: of 43 A. baumannii strains
Outline: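 Broth microdilution in MH broth against CDC AR Isolate Bank and ATCC strains. Inoculum from overnight MH plates (37 °C), suspended to OD600 ~0.5, then diluted 1:1000 into serial twofold compound dilutions. Sterile and growth controls included per row.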

Structure (SMILES) | MIC [1] [mg/L] | MIC [2] [mg/L] | MIC [3] [mg/L] | MIC [4] [mg/L] | MIC [5] [mg/L] | MIC [6] [mg/L] | MIC [7] [mg/L] | MIC [8] [mg/L] | MIC [9] [mg/L] | MIC [10] [mg/L] | MIC [11] [mg/L] | MIC [12] [mg/L] | MIC [13] [mg/L] | MIC [14] [mg/L] | MIC [15] [mg/L] | MIC [16] [mg/L] | MIC [17] [mg/L] | MIC [18] [mg/L] | MIC [19] [mg/L] | MIC [20] [mg/L] | also measured
O=C(NNc1ccc(Cl)cc1)c1ccc(F)cn1 [Compound 3e] | 0.03 (≈ 0.113 µM) | 0.25 (≈ 0.941 µM) | 0.25 (≈ 0.941 µM) | 0.25 (≈ 0.941 µM) | 0.25 (≈ 0.941 µM) | 0.25 (≈ 0.941 µM) | 0.06 (≈ 0.226 µM) | 0.25 (≈ 0.941 µM) | 0.13 (≈ 0.489 µM) | 0.25 (≈ 0.941 µM) | 0.25 (≈ 0.941 µM) | 0.13 (≈ 0.489 µM) | 0.13 (≈ 0.489 µM) | 0.5 (≈ 1.88 µM) | 0.13 (≈ 0.489 µM) | 0.5 (≈ 1.88 µM) | 0.13 (≈ 0.489 µM) | 0.25 (≈ 0.941 µM) | 0.25 (≈ 0.941 µM) | 0.5 (≈ 1.88 µM) | MIC [21]: 0.5 mg/L (≈ 1.88 µM); number of compound/strain combinations with MIC value 0.25 μg/mL [22]: 16; number of compound/strain combinations with MIC value 0.5 μg/mL [22]: 10; number of compound/strain combinations with MIC value 1 μg/mL [22]: 1; number of compound/strain combinations with MIC value ≤0.125 μg/mL [22]: 16
O=C(NNc1cccc(F)c1)c1cnccn1 [Compound 9a] | 0.5 (≈ 2.15 µM) | 1 (≈ 4.31 µM) | 1 (≈ 4.31 µM) | 0.5 (≈ 2.15 µM) | 1 (≈ 4.31 µM) | 0.5 (≈ 2.15 µM) | 0.25 (≈ 1.08 µM) | 0.25 (≈ 1.08 µM) | 0.25 (≈ 1.08 µM) | ≤ 0.13 | 0.25 (≈ 1.08 µM) | 0.25 (≈ 1.08 µM) | 0.25 (≈ 1.08 µM) | ≤ 0.13 | 0.5 (≈ 2.15 µM) | 0.5 (≈ 2.15 µM) | 0.25 (≈ 1.08 µM) | 0.5 (≈ 2.15 µM) | 0.5 (≈ 2.15 µM) | 0.5 (≈ 2.15 µM) | MIC [21]: 0.5 mg/L (≈ 2.15 µM); number of compound/strain combinations with MIC value 0.25 μg/mL [22]: 11; number of compound/strain combinations with MIC value 0.5 μg/mL [22]: 18; number of compound/strain combinations with MIC value 1 μg/mL [22]: 10; number of compound/strain combinations with MIC value ≤0.125 μg/mL [22]: 4
